Test results from patent US20260355318A1, “MOLECULAR MACHINES FOR TREATMENT OF CANCER, FUNGAL INFECTIONS, OR BACTERIAL INFECTIONS” (priority 2022, published 2026).
Read-outs that look alike come from different tables or passages of the source.

Legend:
[1] = tested on: mitochondrial cytochrome c; test: Cytochrome c release; type: cell-based, Candida albicans; settings: 2×MIC, p<0.05
Experimental: Cells were harvested for protoplast preparation by digestion with zymolyase 20 T (20 mg mL-1, US Biological Life Sciences, MA, USA) in 0.1 M potassium phosphate buffer (pH 6.0) containing 1 M sorbitol for 1 h at 30 °C. Mitochondrial cytochrome c was extracted and reduced with ascorbic acid (0.5 mg mL^−1) as previously described (Yun and Lee, 2016). The absorbance at 550 nm was determined on a Beckman Coulter DU 800 spectrophotometer (Fullerton, CA, USA). Cytochrome c levels were normalized to the protein content determined using the Pierce assay (Pierce™ BCA Protein Assay Kit, Thermo Fisher Scientific, MA, USA).

[2] = tested on: A. baumannii; test: MIC, A. baumannii; type: cell-based, Acinetobacter baumannii; settings: for MIC of MM: A. baumannii, 405 nm light; for MIC: Acinetobacter baumannii, read-out: MIC of MM
How it was run: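 Cell suspensions were exposed to compound at 0.3125-40 μM for 30 min in the dark, with agitation, at 30 or 37 °C depending on strain. Each sample was then irradiated with 405 nm light at 146 mW cm^−2 for 5 min (43.8 J cm^−2), inoculated into MHB and incubated overnight. MIC was read as the lowest concentration without visible growth, alongside non-irradiated controls.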

[3] = tested on: Gram-negative and Gram-positive strains; test: MIC comparison Gram-positive versus Gram-negative strains (incl. MRSA); type: cell-based; settings: FIG. 33C
Text: The dotted line denotes the limit of detection of the method. Results are the means of at least 3 biological replicas #standard error of the mean. (FIG. 33B) MIC value of MM 1, MM 5, MM 6 in different Gram-negative and Gram-positive strains, including MRSA. Bars represent the results from at least 3 biological replicas. Unless otherwise noted, results for MM and DMSO are always reported in the presence of light. (FIG. 33C) Box and whiskers plot (median values with min/max range) of the MIC values of MM 1, MM 5, and MM 6 among the Gram-negative and Gram-positive strains examined in this study. * P<0.05; ns, not significant.
The appropriate volume of an MM stock at 8 mM necessary to achieve a concentration ranging from 0.3125 to 40 μM was pipetted into a 2 mL microcentrifuge tube to which 1 mL of cell suspension prepared as previously described was added. Corresponding negative controls (DMSO only) were prepared in the same way. […] Afterward, MM- or DMSO-treated cells were dispensed in one well of a 24-well plate positioned in the center of the light beam (405 nm LED Light, Prizmatix, UHP—F-5-405) placed at the appropriate distance necessary to achieve the desired light intensity of 304 mW cm-2, 146 mW cm2 or 87 mW cm2, as measured with a handheld digital power meter console coupled to an S415C thermal power sensor head (Thorlabs, Newton, MA, USA). […]

[4] = tested on: persister cells of E. coli; test: Persister eradication, E. coli; type: cell-based, Escherichia coli; settings: 1×MIC, 405 nm
Experimental: Persister cells of E. coli were prepared by adding ampicillin (100 μg mL^−1) to exponential-phase cells (OD600 of ≈0.8) followed by continuous agitation for another 3 b, as previously described (Keren et al., 2004). In the case of S. aureus, almost all stationary-phase are considered to be persistent (Keren et al., 2004). S. aureus cells were grown at 37 ° C and 220 rpm in LB broth to an OD600 of 0.3. Cells were then diluted 1:1000 in 25 mL LB and grown for 16 h at 37 ° C and 220 rpm in 250 mL flasks. […] At specified time points (0, 1, 2, 3, 4 and 5, 10 and 15 min), 50-μL aliquots were removed, serially diluted and spot-plated onto LB agar plates to determine colony-forming units per mL (CFU mL^−1). Only dilutions that yielded 10-100 colonies were counted. Results were expressed as log (N/NO) whereby N is the CFU mL^−1 at each irradiation time point and NO is the initial CFU mL^−1 of the corresponding sample. […].

[5] = tested on: A. baumannii, E. coli, P. aeruginosa, S. aureus; test: Resistance development / cross-resistance in bacteria (serial passaging); type: cell-based
Experimental: Isolation of MM-resistant mutants of E. coli, A. baumannii, P. aeruginosa, and S. aureus was attempted by irradiating cell suspensions treated with 4×MIC of the different MMs for 5 min at 146 mW cm^−2 (43.8 J cm^−2). No visible colonies could be obtained for any of the strains tested.
For resistance development by sequential passaging (Ling et al., 2015), A. baumannii, E. coli, P. aeruginosa, and S. aureus cells in exponential phase were collected and processed as described for MIC determination. Cells were incubated at 37 ° C for 24 h after which they were inspected for growth. Cells able to grow at 0.5×MIC were collected and re-challenged with a range of MM concentrations and then irradiated. The antibiotics ciprofloxacin and gentamicin (for Gram-negatives) or ciprofloxacin and tobramycin (for S. aureus) were used as controls.

[6] = Escherichia coli, read-out: MIC of MM in antibiotic-resistant E. coli
[7] = Staphylococcus aureus, S. aureus Gentamycin^R, one line per passage 1-20, read-out: MIC of MM in antibiotic-resistant S. aureus

SMILES	mitochondrial cytochrome c levels [1]	MIC of MM [2] [µM]	MIC [2] [µM]	median MIC in Gram-positive versus Gram-negative bacteria [3]	time to reduce persister cells to limit of detection [4] [min]	MIC [5, 6] [µM]	MIC [5, 7] [µM]
C[C@@H]1Cc2ccc3ccccc3c2/C1=C1\c2ccccc2Sc2cc(NCCN)ccc21 (racemic) [MM 6, N^1-(9-(2-methyl-2,3-dihydro-1H-cyclopenta[a]naphthalen-1-ylidene)-9H-thioxanthen-3-yl)ethane-1,2-diamine]	significant reductions in mitochondrial cytochrome c levels	2.5	2.5	significant differences in the MIC between the two bacterial groups were not observed	5	0.5	0.125
C[C@@H]1Cc2ccc3ccccc3c2/C1=C1\c2ccccc2Sc2cc(NCCN(C)C)ccc21 [MM 1, N^1N^1-dimethyl-N^2-(9-(2-methyl-2,3-dihydro-1H-cyclopenta[a]naphthalen-1-ylidene)-9H-thioxanthen-3-yl) ethane-1,2-diamine]	significant reductions in mitochondrial cytochrome c levels	2.5	2.5	significant differences in the MIC between the two bacterial groups were not observed	10	4	0.125
